Source: US20140243292A1, “SUBSITUTED 2-(CHROMAN-6-YLOXYL)-THIAZOLES AND THEIR USE AS PHARMACEUTICALS” (Sanofi, priority 2011, published 2014)

Target: T1, human NCX1 (Homo sapiens, UniProt P32418)
T1 construct: expressed in transfected cells
Assay: NCX1 inhibition, reverse mode (Ca2+ influx into cells), FLIPR Fluo-4 assay
Type: cell-based
Settings: inhibition of NCX1 in reverse mode (Ca2+ influx into cells); read-out: NCX1rv IC50
Method in brief: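 Max−min Fluo-4 fluorescence (520 nm, FLIPR, 240 points at 2 s) after 20 µM final gramicidin, which drives Na+ loading and reverse-mode Ca2+ entry, gave % inhibition and IC50. Test compound was preincubated 45 min at 16 °C with Fluo-4-loaded CHO cells stably expressing human NCX1, in pH 7.4 buffer containing 3.5 mM CaCl2 and probenecid.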

IC50 [µM] | Compound
0.4 | Cc1ccccc1C1CCc2cc(Oc3ncc(C(=O)NCCO)s3)ccc2O1 (centres unmarked) [Example 299, 2-(2-o-Tolyl-chroman-6-yloxy)-thiazole-5-carboxylic acid (2-hydroxy-ethyl)-amide]
0.6 | Cc1ccccc1C1CCc2cc(Oc3ncc(CNC(=O)c4ccno4)s3)ccc2O1 (centres unmarked) [Example 329, Isoxazole-5-carboxylic acid [2-(2-o-tolyl-chroman-6-yloxy)-thiazol-5-ylmethyl]-amide]
